Results taken from the supplement of paper PMC12463676, “Small-molecule dissolution of stress granules by redox modulation benefits ALS models” (Nature Chemical Biology, 2025).

Legend:
lipoamide = compound: NC(=O)CCCCC1CCSS1 [lipoamide]; assay: thermal stability z-score vs DMSO; higher = more thermally stabilized by treatment; conditions: HeLa, lipoamide concentration 100 µM
Experimental: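 Cellular thermal proteome profiling in HeLa cells. Cells were treated with 100 µM lipoamide for 1 h, with or without 1 mM arsenate for a further 1 h, then heated to ten temperatures (37-66.3 °C), and soluble protein was quantified by TMT mass spectrometry relative to 0.1% DMSO controls. The thermal stability score (sum of log2 fold changes minus the abundance score) was transformed to a z-score; mean of n = 3 experiments.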

potassium arsenate = compound: O=[As]([O-])(O)O.[K+] [potassium arsenate]; assay: as above; conditions: HeLa; arsenate concentration 1 mM
Experimental: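 Cellular thermal proteome profiling in HeLa cells treated with 1 mM arsenate for 1 h (DMSO pretreatment), heated to ten temperatures (37-66.3 °C). Soluble protein was quantified by TMT mass spectrometry relative to DMSO controls; the thermal stability score was transformed to a z-score; mean of n = 3 experiments.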

[1] = arsenate co-treatment: 1 mM arsenate 1 h
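Also: each temperature applied for 3 min, abundance score taken as mean log2 fold change at the two lowest temperatures, z-score obtained by mean subtraction and division by SD.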

Target: GFM2 (UniProt Q969S9)
- thermal stability z-score (lipoamide; [1]): 0.216
- thermal stability z-score (lipoamide; arsenate co-treatment: none): 0.105
- thermal stability z-score (potassium arsenate): 0.226

Target: GFPT1 (UniProt Q06210)
UniProt Q06210, sequence (Q06210 whole entry): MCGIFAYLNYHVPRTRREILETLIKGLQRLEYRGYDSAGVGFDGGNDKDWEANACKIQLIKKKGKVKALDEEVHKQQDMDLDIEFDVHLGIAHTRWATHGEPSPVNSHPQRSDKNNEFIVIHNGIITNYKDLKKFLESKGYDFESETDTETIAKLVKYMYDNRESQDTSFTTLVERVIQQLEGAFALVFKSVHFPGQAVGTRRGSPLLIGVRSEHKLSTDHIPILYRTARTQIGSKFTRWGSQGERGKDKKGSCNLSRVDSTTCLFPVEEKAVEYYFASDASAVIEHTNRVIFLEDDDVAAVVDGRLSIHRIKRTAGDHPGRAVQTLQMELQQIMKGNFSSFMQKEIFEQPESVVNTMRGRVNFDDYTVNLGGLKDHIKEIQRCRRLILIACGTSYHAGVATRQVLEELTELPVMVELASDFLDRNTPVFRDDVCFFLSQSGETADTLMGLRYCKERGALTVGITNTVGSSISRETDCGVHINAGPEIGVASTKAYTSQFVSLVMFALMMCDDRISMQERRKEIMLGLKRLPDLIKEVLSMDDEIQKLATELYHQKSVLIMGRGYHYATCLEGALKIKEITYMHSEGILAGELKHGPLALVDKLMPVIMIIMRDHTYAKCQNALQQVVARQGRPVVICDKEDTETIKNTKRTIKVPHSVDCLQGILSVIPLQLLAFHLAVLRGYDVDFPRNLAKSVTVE
- thermal stability z-score (lipoamide; [1]): -0.127
- thermal stability z-score (lipoamide; arsenate co-treatment: none): -0.196
- thermal stability z-score (potassium arsenate): -0.331

Target: GFPT2 (UniProt O94808)
- thermal stability z-score (lipoamide; [1]): 0.344
- thermal stability z-score (lipoamide; arsenate co-treatment: none): -0.0258
- thermal stability z-score (potassium arsenate): -0.593

Target: GGA1 (UniProt Q9UJY5)
- thermal stability z-score (lipoamide; [1]): -0.523
- thermal stability z-score (lipoamide; arsenate co-treatment: none): -0.393
- thermal stability z-score (potassium arsenate): 0.27

Target: GGA2 (UniProt Q9UJY4)
- thermal stability z-score (lipoamide; [1]): -0.076
- thermal stability z-score (lipoamide; arsenate co-treatment: none): -0.0378
- thermal stability z-score (potassium arsenate): -0.335

Target: GGA3 (UniProt Q9NZ52)
UniProt Q9NZ52, sequence (Q9NZ52 whole entry): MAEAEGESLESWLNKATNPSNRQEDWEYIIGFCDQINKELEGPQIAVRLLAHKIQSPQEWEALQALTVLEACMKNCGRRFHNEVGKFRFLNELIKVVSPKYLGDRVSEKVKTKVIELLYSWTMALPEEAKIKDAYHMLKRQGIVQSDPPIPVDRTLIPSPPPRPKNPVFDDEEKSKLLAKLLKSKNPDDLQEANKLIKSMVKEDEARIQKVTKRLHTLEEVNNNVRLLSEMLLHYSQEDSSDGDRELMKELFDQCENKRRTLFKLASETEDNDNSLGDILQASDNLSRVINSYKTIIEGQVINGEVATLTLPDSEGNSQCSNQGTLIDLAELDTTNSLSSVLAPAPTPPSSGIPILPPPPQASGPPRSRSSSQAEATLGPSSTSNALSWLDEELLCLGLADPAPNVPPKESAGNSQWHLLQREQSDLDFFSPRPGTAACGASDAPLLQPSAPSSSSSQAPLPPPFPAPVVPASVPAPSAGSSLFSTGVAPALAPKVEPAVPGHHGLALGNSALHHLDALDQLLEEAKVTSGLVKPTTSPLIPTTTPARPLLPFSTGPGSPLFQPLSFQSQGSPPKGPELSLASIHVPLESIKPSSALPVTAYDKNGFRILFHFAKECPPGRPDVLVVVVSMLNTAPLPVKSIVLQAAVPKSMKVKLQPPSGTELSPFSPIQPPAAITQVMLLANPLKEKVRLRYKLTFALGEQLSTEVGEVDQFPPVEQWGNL
- thermal stability z-score (lipoamide; [1]): -0.3
- thermal stability z-score (lipoamide; arsenate co-treatment: none): 0.0568
- thermal stability z-score (potassium arsenate): -0.298

Target: GGCT (UniProt O75223)
UniProt O75223, sequence (O75223 whole entry): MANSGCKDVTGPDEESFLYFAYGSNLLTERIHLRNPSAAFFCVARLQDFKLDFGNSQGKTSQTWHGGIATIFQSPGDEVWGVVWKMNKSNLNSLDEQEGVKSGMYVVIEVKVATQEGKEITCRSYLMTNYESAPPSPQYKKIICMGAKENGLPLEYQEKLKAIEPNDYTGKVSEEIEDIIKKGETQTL
- thermal stability z-score (lipoamide; [1]): 1.7
- thermal stability z-score (lipoamide; arsenate co-treatment: none): 1.02
- thermal stability z-score (potassium arsenate): 1.11

Target: GGCX (UniProt P38435)
- thermal stability z-score (lipoamide; [1]): -0.482
- thermal stability z-score (lipoamide; arsenate co-treatment: none): -0.632
- thermal stability z-score (potassium arsenate): -0.0562

Target: GGH (UniProt Q92820)
- thermal stability z-score (lipoamide; [1]): 0.661
- thermal stability z-score (lipoamide; arsenate co-treatment: none): 0.64
- thermal stability z-score (potassium arsenate): 0.317

Target: GGNBP2 (UniProt Q9H3C7)
- thermal stability z-score (lipoamide; [1]): 0.141
- thermal stability z-score (lipoamide; arsenate co-treatment: none): 0.168
- thermal stability z-score (potassium arsenate): -1.84

Target: GGPS1 (UniProt O95749)
UniProt O95749, sequence (O95749 whole entry): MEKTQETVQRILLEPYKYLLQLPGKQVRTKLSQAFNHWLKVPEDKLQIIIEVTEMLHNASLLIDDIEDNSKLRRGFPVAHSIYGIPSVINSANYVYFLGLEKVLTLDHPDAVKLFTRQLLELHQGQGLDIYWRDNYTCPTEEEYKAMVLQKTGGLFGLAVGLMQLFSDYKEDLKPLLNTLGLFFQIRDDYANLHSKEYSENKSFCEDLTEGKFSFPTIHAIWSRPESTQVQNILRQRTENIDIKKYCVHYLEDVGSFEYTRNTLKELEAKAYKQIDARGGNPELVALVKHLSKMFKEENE
- thermal stability z-score (lipoamide; [1]): 0.498
- thermal stability z-score (lipoamide; arsenate co-treatment: none): 0.521
- thermal stability z-score (potassium arsenate): -0.212

Target: GHDC (UniProt Q8N2G8)
- thermal stability z-score (lipoamide; [1]): -0.848
- thermal stability z-score (lipoamide; arsenate co-treatment: none): 0.229
- thermal stability z-score (potassium arsenate): 0.229

Target: GHITM (UniProt Q9H3K2)
- thermal stability z-score (lipoamide; [1]): -0.161
- thermal stability z-score (lipoamide; arsenate co-treatment: none): -0.193
- thermal stability z-score (potassium arsenate): -0.0999

Target: GID8 (UniProt Q9NWU2)
- thermal stability z-score (lipoamide; [1]): 0.00199
- thermal stability z-score (lipoamide; arsenate co-treatment: none): 0.0715
- thermal stability z-score (potassium arsenate): -0.0145

Target: GIGYF1 (UniProt O75420)
UniProt O75420, sequence (O75420 whole entry): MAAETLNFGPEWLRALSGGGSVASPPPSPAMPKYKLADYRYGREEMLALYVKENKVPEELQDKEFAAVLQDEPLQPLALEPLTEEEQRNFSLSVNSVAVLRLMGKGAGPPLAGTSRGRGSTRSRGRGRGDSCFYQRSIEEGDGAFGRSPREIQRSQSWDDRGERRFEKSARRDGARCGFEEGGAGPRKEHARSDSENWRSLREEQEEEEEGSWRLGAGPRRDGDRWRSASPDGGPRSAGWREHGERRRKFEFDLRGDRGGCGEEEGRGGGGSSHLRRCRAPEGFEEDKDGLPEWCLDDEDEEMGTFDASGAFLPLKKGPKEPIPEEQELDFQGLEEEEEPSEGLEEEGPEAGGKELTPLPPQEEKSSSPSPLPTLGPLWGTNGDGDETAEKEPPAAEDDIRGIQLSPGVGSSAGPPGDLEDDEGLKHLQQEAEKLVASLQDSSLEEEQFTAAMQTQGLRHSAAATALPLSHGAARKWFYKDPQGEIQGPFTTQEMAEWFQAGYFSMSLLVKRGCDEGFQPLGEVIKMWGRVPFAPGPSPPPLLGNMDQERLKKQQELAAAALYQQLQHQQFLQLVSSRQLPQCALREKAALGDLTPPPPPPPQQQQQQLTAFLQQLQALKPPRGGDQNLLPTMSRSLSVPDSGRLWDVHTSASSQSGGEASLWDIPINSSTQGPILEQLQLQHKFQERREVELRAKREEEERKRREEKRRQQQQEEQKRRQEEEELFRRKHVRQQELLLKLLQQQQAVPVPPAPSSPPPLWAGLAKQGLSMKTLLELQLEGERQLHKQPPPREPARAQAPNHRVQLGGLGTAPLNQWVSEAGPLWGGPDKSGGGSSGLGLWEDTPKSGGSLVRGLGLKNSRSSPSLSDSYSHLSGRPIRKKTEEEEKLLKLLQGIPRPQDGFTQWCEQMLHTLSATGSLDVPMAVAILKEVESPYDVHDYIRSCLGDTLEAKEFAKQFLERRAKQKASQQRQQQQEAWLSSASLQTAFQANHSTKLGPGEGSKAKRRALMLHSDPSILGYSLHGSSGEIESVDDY
- thermal stability z-score (lipoamide; [1]): 0.0328
- thermal stability z-score (lipoamide; arsenate co-treatment: none): 0.0305
- thermal stability z-score (potassium arsenate): 0.0812

Target: GIGYF2 (UniProt Q6Y7W6)
- thermal stability z-score (lipoamide; [1]): -0.406
- thermal stability z-score (lipoamide; arsenate co-treatment: none): -0.109
- thermal stability z-score (potassium arsenate): 0.0976

Target: GINS1 (UniProt Q14691)
UniProt Q14691, sequence (Q14691 whole entry): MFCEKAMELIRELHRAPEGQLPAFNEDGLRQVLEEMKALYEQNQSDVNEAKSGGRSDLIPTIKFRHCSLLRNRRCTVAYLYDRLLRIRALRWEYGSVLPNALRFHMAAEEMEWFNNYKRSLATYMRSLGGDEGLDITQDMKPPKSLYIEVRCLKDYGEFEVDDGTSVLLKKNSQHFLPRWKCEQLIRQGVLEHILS
- thermal stability z-score (lipoamide; [1]): -0.512
- thermal stability z-score (lipoamide; arsenate co-treatment: none): -0.399
- thermal stability z-score (potassium arsenate): -0.404

Target: GINS2 (UniProt Q9Y248)
UniProt Q9Y248, sequence (Q9Y248 whole entry): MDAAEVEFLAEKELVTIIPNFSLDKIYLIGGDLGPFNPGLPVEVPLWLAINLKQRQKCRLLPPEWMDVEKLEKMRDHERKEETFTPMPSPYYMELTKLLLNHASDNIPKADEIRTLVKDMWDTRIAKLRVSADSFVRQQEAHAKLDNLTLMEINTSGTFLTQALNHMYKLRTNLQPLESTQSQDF
- thermal stability z-score (lipoamide; [1]): -0.0167
- thermal stability z-score (lipoamide; arsenate co-treatment: none): 0.00771
- thermal stability z-score (potassium arsenate): 0.0793

Target: GINS3 (UniProt Q9BRX5)
- thermal stability z-score (lipoamide; [1]): 0.275
- thermal stability z-score (lipoamide; arsenate co-treatment: none): -0.19
- thermal stability z-score (potassium arsenate): -0.288

Target: GINS4 (UniProt Q9BRT9)
- thermal stability z-score (lipoamide; [1]): 0.2
- thermal stability z-score (lipoamide; arsenate co-treatment: none): -0.173
- thermal stability z-score (potassium arsenate): -0.614

Target: GIPC1 (UniProt O14908)
UniProt O14908, sequence (O14908 whole entry): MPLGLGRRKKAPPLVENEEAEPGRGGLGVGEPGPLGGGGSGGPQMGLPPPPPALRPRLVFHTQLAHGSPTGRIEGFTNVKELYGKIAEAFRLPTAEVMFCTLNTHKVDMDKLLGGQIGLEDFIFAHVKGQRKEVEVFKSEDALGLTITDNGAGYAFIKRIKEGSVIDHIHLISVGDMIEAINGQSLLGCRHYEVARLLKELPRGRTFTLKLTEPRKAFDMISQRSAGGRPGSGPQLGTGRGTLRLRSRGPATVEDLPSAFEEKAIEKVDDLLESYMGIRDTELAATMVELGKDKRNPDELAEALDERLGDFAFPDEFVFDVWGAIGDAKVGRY
- thermal stability z-score (lipoamide; [1]): -0.301
- thermal stability z-score (lipoamide; arsenate co-treatment: none): -0.267
- thermal stability z-score (potassium arsenate): -0.251

Target: GIPC3 (UniProt Q8TF64)
- thermal stability z-score (lipoamide; [1]): -0.481
- thermal stability z-score (lipoamide; arsenate co-treatment: none): -0.0967
- thermal stability z-score (potassium arsenate): -0.214

Target: GIT1 (UniProt Q9Y2X7)
UniProt Q9Y2X7, sequence (Q9Y2X7 whole entry): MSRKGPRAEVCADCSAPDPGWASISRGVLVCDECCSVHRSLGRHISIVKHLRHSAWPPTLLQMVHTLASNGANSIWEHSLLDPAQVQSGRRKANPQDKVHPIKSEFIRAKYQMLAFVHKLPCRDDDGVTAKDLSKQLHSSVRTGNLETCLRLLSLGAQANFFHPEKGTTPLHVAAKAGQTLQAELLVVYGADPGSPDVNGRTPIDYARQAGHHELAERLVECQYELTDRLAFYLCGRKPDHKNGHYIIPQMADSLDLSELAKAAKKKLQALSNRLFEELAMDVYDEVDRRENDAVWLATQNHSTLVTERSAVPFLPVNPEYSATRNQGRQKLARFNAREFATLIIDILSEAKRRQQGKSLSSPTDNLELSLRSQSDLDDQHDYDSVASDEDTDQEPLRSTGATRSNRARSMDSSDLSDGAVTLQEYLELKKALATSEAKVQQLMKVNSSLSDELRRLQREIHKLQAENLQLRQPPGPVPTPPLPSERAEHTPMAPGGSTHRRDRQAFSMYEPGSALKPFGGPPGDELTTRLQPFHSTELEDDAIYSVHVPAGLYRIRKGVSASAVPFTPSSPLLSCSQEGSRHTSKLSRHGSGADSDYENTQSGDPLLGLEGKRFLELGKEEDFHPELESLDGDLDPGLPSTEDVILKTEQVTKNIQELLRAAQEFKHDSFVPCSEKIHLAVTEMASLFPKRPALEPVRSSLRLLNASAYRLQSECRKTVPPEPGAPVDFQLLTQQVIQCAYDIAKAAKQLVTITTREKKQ
- thermal stability z-score (lipoamide; [1]): 0.346
- thermal stability z-score (lipoamide; arsenate co-treatment: none): -0.311
- thermal stability z-score (potassium arsenate): -0.368

Target: GIT2 (UniProt Q14161)
- thermal stability z-score (lipoamide; [1]): 1.13
- thermal stability z-score (lipoamide; arsenate co-treatment: none): 1.87
- thermal stability z-score (potassium arsenate): 1

Target: GK (UniProt P32189)
UniProt P32189, sequence (P32189 whole entry): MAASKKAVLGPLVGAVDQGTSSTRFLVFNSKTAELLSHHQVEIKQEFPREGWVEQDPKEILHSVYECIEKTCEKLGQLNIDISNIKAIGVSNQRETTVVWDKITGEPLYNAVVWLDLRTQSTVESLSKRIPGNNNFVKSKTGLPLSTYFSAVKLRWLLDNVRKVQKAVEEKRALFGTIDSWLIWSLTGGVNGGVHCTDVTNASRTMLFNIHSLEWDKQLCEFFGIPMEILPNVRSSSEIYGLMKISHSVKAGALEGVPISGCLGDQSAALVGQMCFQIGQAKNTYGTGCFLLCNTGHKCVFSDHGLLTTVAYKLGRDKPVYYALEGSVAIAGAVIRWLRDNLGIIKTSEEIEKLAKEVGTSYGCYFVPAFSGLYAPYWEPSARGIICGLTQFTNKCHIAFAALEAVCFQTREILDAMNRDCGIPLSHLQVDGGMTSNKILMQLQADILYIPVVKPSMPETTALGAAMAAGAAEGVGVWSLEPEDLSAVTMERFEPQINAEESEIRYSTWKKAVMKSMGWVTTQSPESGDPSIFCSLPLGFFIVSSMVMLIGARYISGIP
- thermal stability z-score (lipoamide; [1]): 0.371
- thermal stability z-score (lipoamide; arsenate co-treatment: none): 0.195
- thermal stability z-score (potassium arsenate): 0.46

Target: GKAP1 (UniProt Q5VSY0)
- thermal stability z-score (lipoamide; [1]): 0.161
- thermal stability z-score (lipoamide; arsenate co-treatment: none): 0.36
- thermal stability z-score (potassium arsenate): -0.0462

Target: GLA (UniProt P06280)
- thermal stability z-score (lipoamide; [1]): -1.1
- thermal stability z-score (lipoamide; arsenate co-treatment: none): -0.822
- thermal stability z-score (potassium arsenate): 0.421
